Among the data in patent US10844049B2, “GLP-1R agonists and uses thereof” (QILU REGOR THERAPEUTICS INC., priority 2018, dated 2020) are EC50 values, retold here.

This assay addresses GLP1R (Homo sapiens, UniProt P43220). Kind of assay: GLP1R cAMP HTRF assay, HEK293/GLP-1R/CRE/Luc (HEK293T cells). It counts as cell-based. The note with it: read-out: EC50. Summed up: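 cAMP accumulation via HTRF after 30 min, 37 °C exposure of 1000 receptor-expressing cells/well to compound (0.5% DMSO final) in IBMX (500 μM)/0.1% BSA DPBS.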
On the technique in general: TR-FRET usually uses a lanthanide donor and a delayed reading to cut background.

Chain of GLP1R (P43220 24-463): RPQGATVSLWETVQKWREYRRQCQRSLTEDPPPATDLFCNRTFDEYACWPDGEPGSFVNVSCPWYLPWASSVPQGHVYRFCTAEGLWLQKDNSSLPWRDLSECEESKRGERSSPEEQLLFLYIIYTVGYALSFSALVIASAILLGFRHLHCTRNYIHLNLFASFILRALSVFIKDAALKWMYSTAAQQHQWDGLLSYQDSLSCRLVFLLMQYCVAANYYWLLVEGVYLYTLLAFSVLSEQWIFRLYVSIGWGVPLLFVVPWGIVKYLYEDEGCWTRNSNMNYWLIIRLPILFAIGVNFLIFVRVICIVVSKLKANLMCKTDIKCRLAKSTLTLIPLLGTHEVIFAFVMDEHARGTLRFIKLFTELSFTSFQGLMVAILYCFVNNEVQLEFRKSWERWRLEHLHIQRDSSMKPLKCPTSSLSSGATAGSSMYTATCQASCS

As for `O=C(O)c1ccc2nc(CN3CC=C(c4cccc(OCc5c(Cl)cccc5Cl)n4)CC3)n(C[C@@H]3CCO3)c2c1` [Compound 138], the concentration for a half-maximal effect (EC50) is no more than 1000 nM.
Next, `CC1(C)CN(Cc2nc3ccc(C(=O)O)cc3n2C[C@@H]2CCO2)CC=C1c1cccc(OCc2ccc(C#N)cc2F)n1` [Compound 235, (S)-2-((6-((4-cyano-2-fluorobenzyl)oxy)-3′,3′-dimethyl-3′,6′-dihydro-[2H′-bipyridin]-1′(2′H)yl)methyl)-1-(oxetan-2-ylmethyl)-1H-benzo[d]imidazole-6-carboxylic add]: no more than 1000 nM; `O=C(O)c1ccc2nc(CN3CC=C(c4cc(OCc5ccc(Cl)cc5F)ccc4F)CC3)n(C[C@@H]3CCO3)c2c1` [Compound 43, (S)-2-((4-(5-((4-chloro-2-fluorobenzyl)oxy)-2-fluorophenyl)-3,6-dihydropyridin-1(2H)-yl)methyl)-1-(oxetan-2-ylmethyl)-1H-benzo[d]imidazole-6-carboxylic add]: no more than 15 nM.
With `O=C(O)c1ccc2cc(CN3CCN(c4cccc(OCc5ccc(Cl)cc5F)n4)CC3)n(C[C@@H]3CCO3)c2c1` [Compound 49, (S)-2-((4-(6-(4-chloro-2-fluorobenzyloxy)pyridin-2-yl)piperazin-1-yl)methyl)-1-(oxetan-2-ylmethyl)-1 h-indole-6-carboxylic acid], the EC50 is greater than 1000 nM.
`O=C(O)c1ccc2nc(CN3CCN(c4cccc(OCc5ccc(C#CC6CC6)cc5F)c4)CC3)n(C[C@@H]3CCO3)c2c1` [Compound 190, (S)-2-((4-(3-((4-(cyclopropylethynyl)-2-fluorobenzyl)oxy)phenyl)piperazin-1-yl)methyl)-1-(oxetan-2-ylmethyl)-1H-benzo[d]imidazole-6-carboxylic acid]: the concentration for a half-maximal effect (EC50) was no more than 150 nM.
Turning to `Cc1cc2nc(CN3CC=C(c4cccc(OCc5ccc(Cl)cc5)n4)CC3)n(C[C@@H]3CCO3)c2cc1C(=O)O` [Compound 111, (S)-2-((4-(6-(4-chlorobenzyloxy)pyridin-2-yl)-5,6-dihydropyridin-1(2H)-yl)methyl)-5-methyl-1-(oxetan-2-ylmethyl)-1H-benzo[d]imidazole-6-carboxylic acid], the EC50 is no more than 15 nM.
On to `O=C(O)c1ccc2nc(CN3CCC(F)(c4cccc(OCc5ccc(Cl)cc5F)n4)CC3)n(C[C@@H]3CCO3)c2c1` [Compound 67, (S)-2-((4-(6-(4-chloro-2-fluorobenzyloxy)pyridin-2-yl)-4-fluoropiperidin-1-yl)methyl)-1-(oxetan-2-ylmethyl)-1H-benzo[d]imidazole-6-carboxylic acid], for which the concentration giving a half-maximal response (EC50) is no more than 150 nM.
In the case of `Cn1ccnc1Cn1c(CN2CCN(c3ccc4c(n3)N(Cc3ccc(Cl)cc3F)CCO4)CC2)nc2ccc(C(=O)O)cc21` [Compound 5, 2-((4-(4-(4-chloro-2-fluorobenzyl)-3,4-dihydro-2 h-pyrido[3,2-b][1,4]oxazin-6-yl)piperazin-1-yl)methyl)-1-((l-methyl-1 h-imidazol-2-yl)methyl)-1 h-benzo[d] imidazole-6-carboxylic acid], the concentration for a half-maximal effect (EC50) is greater than 1000 nM.
Regarding “(S)-2-((4-(3-((4-cyano-2-fluorobenzyl)oxy)-5-fluorophenyl)-5,6-dihydropyridin-1(2H)-yl)methyl)-1-(oxetan-2-ylmethyl)-1H-benzo[d]imidazole-6-carboxylic add [Compound 218]”, the EC50 is no more than 150 nM.
Next, `O=C(O)c1ccc2nc(CN3CCC(=O)N(c4cccc(OCc5ccc(Cl)cc5F)n4)CC3)n(C[C@@H]3CCO3)c2c1` [Compound 57]: no more than 1000 nM.
Take `O=C(O)c1ccc2nc(CN3CC=C(c4ccnc(NCc5ccc(Cl)cc5F)n4)CC3)n(C[C@@H]3CCO3)c2c1` [Compound 125, (S)-2-((4-(2-((4-chloro-2-fluorobenzyl)amino)pyrimidin-4-yl)-3,6-dihydropyridin-1(2H)-yl)methyl)-1-(oxetan-2-ylmethyl)-1H-benzo[d]imidazole-6-carboxylic add]: the EC50 was no more than 150 nM.
Regarding `O=C(O)c1ccc2nc(CN3CCN(c4ncc(F)c(OCc5ccc(Cl)cc5F)n4)CC3)n(C[C@@H]3CCO3)c2c1` [Compound 180, (S)-2-((4-(4-(4-chloro-2-fluorobenzyloxy)-5-fluoropyrimidin-2-yl)piperazin-1-yl)methyl)-1-(oxetan-2-ylmethyl)-1H-benzo[d]imidazole-6-carboxylic add], the EC50 is no more than 15 nM.
In the case of `O=C(O)c1ccc2nc(CN3CC=C(c4ccc(=O)n(CCc5ccc(Cl)cc5F)n4)CC3)n(C[C@@H]3CCO3)c2c1` [Compound 20, (S)-2-((4-(1-(4-chloro-2-fluorophenethyl)-6-oxo-1,6-dihydropyridazin-3-yl)-5,6-dihydropyridin-1(2H)-yl)methyl)-1-(oxetan-2-ylmethyl)-1 h-benzo[d]imidazole-6-carboxylic acid], the EC50 was no more than 1000 nM.
Consider `O=C(O)c1ccc2nc(CN3CC=C(c4ccnc(OCc5ccc(Cl)cc5F)c4)CC3)n(C[C@@H]3CCO3)c2c1` [Compound 31, (S)-2-((2′-((4-chloro-2-fluorobenzyl)oxy)-3,6-dihydro-[4,4′-bipyridin]-1(2H)-yl)methyl)-1-(oxetan-2-ylmethyl)-1H-benzo[d]imidazole-6-carboxylic add], for which the 50% effective concentration (EC50) is no more than 1000 nM.
Take `O=C(O)c1ccc2nc(CN3CC=C(c4cccc(OCc5ccccn5)n4)CC3)n(C[C@@H]3CCO3)c2c1` [Compound 159, (S)-1-(oxetan-2-ylmethyl)-2-((6-(pyridin-2-ylmethoxy)-5′,6′-dihydro-[2,4′-bipyridin]-1′(2′H)-yl)methyl)-1H-benzo[d]imidazole-6-carboxylic acid]: the EC50 is no more than 150 nM.
As for `O=C(O)c1ccc2nc(CN3CCN(c4ccc(=O)n(Cc5ccc(Cl)cc5F)n4)CC3)n(C[C@@H]3CCO3)c2c1` [Compound 7, (S)-2-((4-(1-(4-chloro-2-fluorobenzyl)-6-oxo-1,6-dihydropyridazin-3-yl)piperazin-1-yl)methyl)-1-(oxetan-2-ylmethyl)-1 h-benzo[d]imidazole-6-carboxylic acid], the figure is greater than 1000 nM.
Turning to `O=C(O)c1ccc2nc(CN3CC=C(c4cccc(OCc5ccc(Cl)cc5)n4)CC3)n(C[C@@H]3CCO3)c2c1` [Compound 44, (S)-2-((6-((4-chlorobenzyl)oxy)-3′,6′-dihydro-[2,4′-bipyridin]-1′(2′H)-yl)methyl)-1-(oxetan-2-ylmethyl)-1H-benzo[d]imidazole-6-carboxylic acid], the EC50 was no more than 15 nM.
As for `Cc1ccc(C2=CCN(Cc3nc4ccc(C(=O)O)cc4n3C[C@@H]3CCO3)CC2)cc1OCc1ccc(Cl)cc1F` [Compound 64, (S)-2-((4-(3-((4-chloro-2-fluorobenzyl)oxy)-4-methylphenyl)-3,6-dihydropyridin-1(2H)-yl)methyl)-1-(oxetan-2-ylmethyl)-1H-benzo[d]imidazole-6-carboxylic acid], the figure is no more than 150 nM.
For `CC(C)(C)c1ccc(COc2cccc(C3=CCN(Cc4nc5ccc(C(=O)O)cc5n4C[C@@H]4CCO4)CC3)n2)cc1` [Compound 147, (S)-2-((6-((4-(tert-butyl)benzyl)oxy)-5′,6′-dihydro-[2,4′-bipyridin]-1′(2H)-yl)methyl)-1-(oxetan-2-ylmethyl)-1H-benzo[d]imidazole-6-carboxylic add], the half-maximal effective concentration (EC50) is no more than 1000 nM.

What is called EC50 is the concentration giving half of the maximal effect.
